Experimental data reported in US10689622B2, “Culture medium for proliferating stem cell, which contains sulfated compound” (AJINOMOTO CO., INC., priority 2012, dated 2020).

What was measured:
bFGF [1] = molecular target: T1, bFGF (Homo sapiens, UniProt P09038); test: Evaluation of bFGF stabilization in Essential 8 medium (ELISA); type: biochemical; conditions: 37° C. for 7 days
T1 construct: purchased Lonza (via TAKARA BIO INC.) Ser. No. 00/190,632
Experimental: (§1) A commercially available measurement kit (human bFGF ELISA kit, ELH-bFGF-001, Ray Biotech) was used for quantification of bFGF in the medium. The measurement procedures followed the protocol attached to the kit. The bFGF concentration of the serum-free medium was calculated from the analytical curve (conversion formula) drawn from the absorbance of an analytical curve standard solution. The evaluation criteria of Tables 5-8 are as follows:
A test compound was dissolved in phosphate buffered saline, and diluted 10-fold with a serum-free medium to adjust the concentration shown in Table 4 (test sample). The test sample was left standing in a tightly sealed Falcon tube at 37° C. for 7 days, and the bFGF concentration was quantified by ELISA measurement. A phosphate buffered saline without a test compound was diluted 10-fold with Essential 8 medium or ReproFF2 medium, and left standing at 37° C. or 4° C. for 7 days, and used as a control.
A commercially available measurement kit (human bFGF ELISA kit, ELH-bFGF-001, Ray Biotech) was used for quantification of bFGF in the medium. The measurement procedures followed the protocol attached to the kit. The bFGF concentration of the serum-free medium was calculated from the analytical curve (conversion formula) drawn from the absorbance of an analytical curve standard solution. The evaluation criteria of Table 13 are as follows:
A test compound was dissolved in phosphate buffered saline, and diluted 10-fold with a serum-free medium to adjust the concentration shown in Table 12 (test sample). The test sample was left standing in a tightly sealed Falcon tube at 37° C. for 7 days, and the bFGF concentration was quantified by ELISA measurement. A phosphate buffered saline without a test compound was diluted 10-fold with Essential 8 medium or ReproFF2 medium, and left standing at 37° C. or 4° C. for 7 days, and used as a control.

[2] = system: Human bone marrow-derived mesenchymal stem cells; test: Mesenchymal stem cell proliferation system (cell number by DNA quantification)
Experimental: Human bone marrow-derived mesenchymal stem cells (Lonza, Human Mesenchymal Stem Cell) cultured in mesenchymal stem cell-dedicated medium (Lonza, MSCGM) or Dulbecco's Modified Eagle Medium (Invitrogen, GIBCO D-MEM) containing inactivated fetal bovine serum (Invitrogen, GIBCO FBS) and penicillin-streptomycin (Sigma-Aldrich Co. LLC.) were cultured in exchanged Lonza serum-free medium. The mesenchymal stem cells thus-acclimated to serum-free culture were suspended in Lonza serum-free medium, and seeded on a 24 well culture plate (Nippon Becton Dickinson Company, Ltd., Falcon culture plate) at 20,000 cells/well or a 6 well culture plate (Nippon Becton Dickinson Company, Ltd., Falcon culture plate) at 50,000 cells/well. Then, a test compound solution after filter sterilization and adjustment to a given concentration was added, and the cells were cultured in an incubator (Thermo Scientific, Forma incubator) under the 5% CO2/37° C. conditions for 7 to 8 days. When the medium exchange was necessary, the medium was exchanged 2 to 3 days after the seeding. In this case, the test compound solution was also added again in the same manner as in seeding. In this case, various compound solutions were added again in the same manner as in seeding. After culturing for 7 to 8 days, the medium was removed and DNA quantification was performed. As a control, the cells were cultured in the same manner in a medium without a test compound and added with phosphate buffered saline.
The medium in the 24 well culture plate was removed, and the cells were washed with phosphate buffered saline. The sodium lauryl sulfate solution (500 μl/well) was added, and the mixture was left standing at 37° C. for 4 hours. The sodium lauryl sulfate solution (1.0 ml) was also added to a cell pellet with a known cell number, and the mixture was left standing at 37° C. for 4 hours. As for the cells in the 24 well culture plate, a part (50 μl) of the lysate was transferred to a 96 well black microplate. The solution used for treating the cell pellets was successively diluted with sodium lauryl sulfate solution and used as solutions for drawing an analytical curve. Also, a part (50 μl) of the solutions for drawing an analytical curve was each transferred to the 96 well black microplate. […] The fluorescence was measured by a microplate reader (excitation wavelength: 355 nm, measurement wavelength: 460 nm) within 5 minutes from the addition. The cell number of the 24 well cell culture plate was calculated from the analytical curve drawn (conversion formula). The evaluation criteria were as follows.

bFGF [3] = molecular target: T1, bFGF; test: Evaluation of bFGF stabilization in Lonza serum-free medium (ELISA); type: biochemical; conditions: for bFGF concentration relative to that of 4° C. control (ELISA): Lonza serum-free medium, 37° C. for 7 days; for effectiveness ELISA: effectiveness in ELISA evaluation of mesenchymal stem cells (medium), 4° C. control ratio
Experimental: A test compound was dissolved in phosphate buffered saline, and diluted 10-fold with a serum-free medium to adjust to the concentrations shown in Table 4 (test sample). The test sample was left standing in a tightly sealed Falcon tube at 37° C. for 7 days (Tables 5 to 8-2) or 3 days (Table 8-3), and the bFGF concentration was quantified by ELISA measurement. A phosphate buffered saline without a test compound was diluted 10-fold with a serum-free medium, and left standing at 37° C. or 4° C. for 7 days or 3 days, and used as a control.
as §1
A test compound was dissolved in phosphate buffered saline, and diluted 10-fold with a serum-free medium to adjust to the concentrations shown in Table 13 (test sample). The test sample was left standing in a tightly sealed Falcon tube at 37° C. for 7 days, and the bFGF concentration was quantified by ELISA measurement. A phosphate buffered saline without a test compound was diluted 10-fold with a serum-free medium, and left standing at 37° C. or 4° C. for 7 days, and used as a control.
A commercially available measurement kit (human bFGF ELISA kit, ELH-bFGF-001, Ray Biotech) was used for quantification of bFGF in the medium. The measurement procedures followed the protocol attached to the kit. The bFGF concentration of the serum-free medium was calculated from the analytical curve (conversion formula) drawn from the absorbance of an analytical curve standard solution. The evaluation criteria of Table 13 are as follows: […]

[4] = Measurement of content level of sulfur in test compound (ICP); type: physicochemical; conditions: ICPS-8100, evaluation samples containing 0.01 wt % test compound
Description: The content level of sulfur in the sulfated saccharide is generally not less than 5 wt %, preferably not less than 10 wt %, more preferably not less than 15 wt %, and the upper limit is generally not more than 40 wt %, preferably not more than 35 wt %, more preferably not more than 30 wt %. […] Here, the content level of sulfur is a proportion in wt % of sulfur derived only from the sulfate group in sulfated saccharides, which can be measured by a method known in the field (e.g., rhodizonate method, elemental analysis or luminescent spectral analysis).
The content level of sulfur in the sulfated polymer is generally not less than 5 wt %, preferably not less than 10 wt %, more preferably not less than 15 wt %, and the upper limit is generally not more than 40 wt %. […] Here, the content level of sulfur is a proportion in wt % of sulfur in the sulfated polymer, which can be measured by a method known in the field such as rhodizonate method, elemental analysis or luminescent spectral analysis).
The relationship between the content level of sulfur in a test compound (sulfur content) and the cell proliferation promoting effect was examined. The sulfur content was measured using ICPS-8100 manufactured by SHIMADZU CORPORATION and analyzed using ICPS-8000 series Ver1.03. As the reference standard of sulfur, the standard for ICP-MS manufactured by Accu Standard was used. Sulfur reference standard solutions (0, 1, 10, 30, 50 ppm) were prepared, and the sulfur content of the evaluation samples containing 0.01 wt % test compound was measured by an analytical curve method.

T1 sequence (P09038 143-288): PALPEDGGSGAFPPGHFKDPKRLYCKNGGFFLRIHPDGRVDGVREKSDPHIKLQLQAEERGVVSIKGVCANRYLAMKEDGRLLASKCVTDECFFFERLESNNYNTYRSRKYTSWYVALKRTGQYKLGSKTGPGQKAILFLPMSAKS

## tartrate-SO3Na
bFGF [1]
  concentration showing a suppressive effect on a decrease in the bFGF concentration of the medium: not less than 250 μg/ml
bFGF [1]; test compound 250 pg/ml
  bFGF concentration relative to that of 4° C. control (ELISA): x (bFGF concentration was less than 10% relative to that of 4 °C control)
bFGF [1]; test compound 25 ng/ml
  bFGF concentration relative to that of 4° C. control (ELISA): x (bFGF concentration was less than 10% relative to that of 4 °C control)
bFGF [1]; test compound 250 ng/ml
  bFGF concentration relative to that of 4° C. control (ELISA): x (bFGF concentration was less than 10% relative to that of 4 °C control)
bFGF [1]; test compound 25 μg/ml
  bFGF concentration relative to that of 4° C. control (ELISA): x (bFGF concentration was less than 10% relative to that of 4 °C control)
bFGF [1]; test compound 250 μg/ml
  bFGF concentration relative to that of 4° C. control (ELISA): − (bFGF concentration was not less than 10% and less than 30% relative to that of 4 °C control)
[2]; growth of mesenchymal stem cell, control ratio
  effectiveness cells: ◯ (◯ not leas than 100%)
[2]; mesenchymal stem cells, Lonza serum-free medium
  concentration showing promoted cell proliferation as compared to the control: 2.5 ng/mL
bFGF [3]; test compound 25 ng/ml
  bFGF concentration relative to that of 4° C. control (ELISA): x (bFGF concentration was less than 10% relative to that of 4 °C control)
bFGF [3]; test compound 250 ng/ml
  bFGF concentration relative to that of 4° C. control (ELISA): − (bFGF concentration was not less than 10% and less than 30% relative to that of 4 °C control)
bFGF [3]; test compound 25 μg/ml
  bFGF concentration relative to that of 4° C. control (ELISA): x (bFGF concentration was less than 10% relative to that of 4 °C control)
bFGF [3]; test compound 250 μg/ml
  bFGF concentration relative to that of 4° C. control (ELISA): x (bFGF concentration was less than 10% relative to that of 4 °C control)
bFGF [3]; as shown in the Examples (methods of Examples I-1 and II-1)
  concentration at which a decrease in the protein amount of FGF is not suppressed: not more than 250 μg/ml
bFGF [3]
  effectiveness ELISA: ++ (++ 50%<)

## O=S(=O)([O-])OC1C(OS(=O)(=O)[O-])C(OS(=O)(=O)[O-])C(OS(=O)(=O)[O-])C(OS(=O)(=O)[O-])C1OS(=O)(=O)[O-].[K+].[K+].[K+].[K+].[K+].[K+] (centres unmarked) [myo-inositol 6SO3K]
bFGF [1]
  concentration showing a suppressive effect on a decrease in the bFGF concentration of the medium: not less than 25 μg/ml
bFGF [1]; test compound 250 pg/ml
  bFGF concentration relative to that of 4° C. control (ELISA): x (bFGF concentration was less than 10% relative to that of 4 °C control)
bFGF [1]; test compound 25 ng/ml
  bFGF concentration relative to that of 4° C. control (ELISA): x (bFGF concentration was less than 10% relative to that of 4 °C control)
bFGF [1]; test compound 250 ng/ml
  bFGF concentration relative to that of 4° C. control (ELISA): x (bFGF concentration was less than 10% relative to that of 4 °C control)
bFGF [1]; test compound 25 μg/ml
  bFGF concentration relative to that of 4° C. control (ELISA): +++ (bFGF concentration was not less than 70% relative to that of 4 °C control)
bFGF [1]; test compound 250 μg/ml
  bFGF concentration relative to that of 4° C. control (ELISA): +++ (bFGF concentration was not less than 70% relative to that of 4 °C control)
bFGF [3]; test compound 25 ng/ml
  bFGF concentration relative to that of 4° C. control (ELISA): x (bFGF concentration was less than 10% relative to that of 4 °C control)
bFGF [3]; test compound 250 ng/ml
  bFGF concentration relative to that of 4° C. control (ELISA): x (bFGF concentration was less than 10% relative to that of 4 °C control)
bFGF [3]; test compound 25 μg/ml
  bFGF concentration relative to that of 4° C. control (ELISA): + (bFGF concentration was not less than 30% and less than 50% relative to that of 4 °C control)
bFGF [3]; test compound 250 μg/ml
  bFGF concentration relative to that of 4° C. control (ELISA): ++ (bFGF concentration was not less than 50% and less than 70% relative to that of 4 °C control)
bFGF [3]
  effectiveness ELISA: +++ (+++ 70%<)
[4]
  sulfur content Found (inorganic analysis): 19 wt %

## glycerol SO3Na
bFGF [3]; test compound 25 ng/ml
  bFGF concentration relative to that of 4° C. control (ELISA): x (bFGF concentration was less than 10% relative to that of 4 °C control)
bFGF [3]; test compound 250 ng/ml
  bFGF concentration relative to that of 4° C. control (ELISA): x (bFGF concentration was less than 10% relative to that of 4 °C control)
bFGF [3]; test compound 25 μg/ml
  bFGF concentration relative to that of 4° C. control (ELISA): x (bFGF concentration was less than 10% relative to that of 4 °C control)
bFGF [3]; test compound 250 μg/ml
  bFGF concentration relative to that of 4° C. control (ELISA): x (bFGF concentration was less than 10% relative to that of 4 °C control)
bFGF [3]
  effectiveness ELISA: + (+ 30%<)
[4]
  sulfur content Found (inorganic analysis): 23 wt %

## α-cyclodextrin SO3Na [α-CD•SO3Na]
bFGF [1]
  concentration showing a suppressive effect on a decrease in the bFGF concentration of the medium: not less than 2.5 μg/ml
bFGF [1]; test compound 250 pg/ml
  bFGF concentration relative to that of 4° C. control (ELISA): x (bFGF concentration was less than 10% relative to that of 4 °C control)
bFGF [1]; test compound 25 ng/ml
  bFGF concentration relative to that of 4° C. control (ELISA): x (bFGF concentration was less than 10% relative to that of 4 °C control)
bFGF [1]; test compound 250 ng/ml
  bFGF concentration relative to that of 4° C. control (ELISA): x (bFGF concentration was less than 10% relative to that of 4 °C control)
bFGF [1]; test compound 25 μg/ml
  bFGF concentration relative to that of 4° C. control (ELISA): +++ (bFGF concentration was not less than 70% relative to that of 4 °C control)
bFGF [1]; test compound 250 μg/ml
  bFGF concentration relative to that of 4° C. control (ELISA): +++ (bFGF concentration was not less than 70% relative to that of 4 °C control)
bFGF [3]; test compound 25 ng/ml
  bFGF concentration relative to that of 4° C. control (ELISA): x (bFGF concentration was less than 10% relative to that of 4 °C control)
bFGF [3]; test compound 250 ng/ml
  bFGF concentration relative to that of 4° C. control (ELISA): + (bFGF concentration was not less than 30% and less than 50% relative to that of 4 °C control)
bFGF [3]; test compound 25 μg/ml
  bFGF concentration relative to that of 4° C. control (ELISA): − (bFGF concentration was not less than 10% and less than 30% relative to that of 4 °C control)
bFGF [3]; test compound 250 μg/ml
  bFGF concentration relative to that of 4° C. control (ELISA): + (bFGF concentration was not less than 30% and less than 50% relative to that of 4 °C control)
bFGF [3]
  effectiveness ELISA: ++ (++ 50%<)
[4]
  sulfur content Found (inorganic analysis): 14 wt %
